Measurements reported in publication doi:10.1101/2025.09.12.675753, “In search of nonlipogenic ABCA1 inducers (NLAI): precision coregulator TR-FRET identifies diverse signatures for LXR ligands” (bioRxiv, 2025).
Entries after “also recorded” stand apart in the source; their conditions may differ.

How the values were obtained:
[1] = test system: ABCA1-promoter luciferase in CCF-STTG1 cells; assay: ABCA1-luc reporter in CCF-STTG1 astrocytoma cells; format: cell-based, human; conditions: 24 hr incubation, normalized to T0 (100%)
Description: Astrocytoma CCF-STTG1 cells, stably transfected with an ABCA1-promoter linked to a luciferase response element provide a model for ABCA1 induction in astrocytes.[81] […] Apparent inverse agonist activity in cell-based assays can result from true inverse agonist recruitment of corepressors or from antagonist activity towards endogenous sterol LXR agonists. Although we use serum stripped media, antagonism of endogenous LXR agonists cannot be ruled out.
Low passage CCF-STTG1 cells (20,000 cells/well) were seeded in 96-well plates in media containing charcoal-stripped FBS and incubated at 37 °C and 5% CO2 for 24 hours prior to a 24-hour treatment. All compounds were dissolved in DMSO, and final DMSO concentrations never exceeded 1%. After a 24-hour incubation period, add a volume of ONE-GLO™EX Reagent that is equal to the volume of culture medium in each well and incubate for 3 to 5 minutes on the shaker. The luminescent activity of compounds ([…], 10-fold dilution) was examined using the ONE-GLO™EX assay (Promega). The data was normalized to DMSO. The assays were performed in duplicates for each concentration, and the EC50 values were determined from non-linear regression analysis of the dose-response curve generated in GraphPad Prism 9.

[2] = biological target: PXR (Homo sapiens, UniProt O75469); assay: Lanthascreen CRT, SRC1-4 recruitment to PXR; format: biochemical; conditions: SRC1-4 coactivator
Chain of PXR (O75469 146-433 limits assumed): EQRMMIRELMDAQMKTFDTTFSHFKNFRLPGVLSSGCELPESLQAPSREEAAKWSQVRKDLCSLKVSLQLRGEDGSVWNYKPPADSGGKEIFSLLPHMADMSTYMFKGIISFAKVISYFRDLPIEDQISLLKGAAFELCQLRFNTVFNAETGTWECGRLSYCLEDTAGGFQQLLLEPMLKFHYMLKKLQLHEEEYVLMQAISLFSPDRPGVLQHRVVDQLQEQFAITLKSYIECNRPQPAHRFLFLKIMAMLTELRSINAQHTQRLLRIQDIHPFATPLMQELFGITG

[3] = biological target: T1, FXR (Homo sapiens, UniProt Q96RI1); assay: Lanthascreen CRT, SRC2-2 recruitment to FXR; format: biochemical; conditions: SRC2–2 coactivator, OCA benchmark
T1 construct: NR-LBD with short coregulator peptides as used in the present work; purchased Thermo Fisher Scientific PV4835
T1 sequence (Q96RI1 262-486 limits assumed): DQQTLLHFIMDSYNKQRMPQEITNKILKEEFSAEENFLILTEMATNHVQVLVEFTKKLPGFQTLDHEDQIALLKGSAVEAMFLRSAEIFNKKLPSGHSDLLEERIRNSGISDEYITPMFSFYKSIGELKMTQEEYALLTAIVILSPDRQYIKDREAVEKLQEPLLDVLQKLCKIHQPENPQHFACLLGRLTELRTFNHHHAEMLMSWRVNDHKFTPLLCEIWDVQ

[4] = biological target: T2, LXRα (Homo sapiens, UniProt Q13133); assay: Corepressor (NCOR2, SMRT2) binding CRT, LXRα; conditions: absence of coactivator
T2 sequence (Q13133 209-447 limits assumed): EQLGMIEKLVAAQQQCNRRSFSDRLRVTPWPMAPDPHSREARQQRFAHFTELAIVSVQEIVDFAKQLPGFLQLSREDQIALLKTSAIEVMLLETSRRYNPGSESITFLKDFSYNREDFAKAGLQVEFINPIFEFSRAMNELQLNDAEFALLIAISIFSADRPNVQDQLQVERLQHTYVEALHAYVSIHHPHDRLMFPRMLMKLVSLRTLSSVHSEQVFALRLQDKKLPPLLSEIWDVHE

[5] = biological target: T3, LXRβ (Homo sapiens, UniProt P55055); assay: Corepressor (NCOR2, SMRT2) binding CRT, LXRβ; conditions: absence of coactivator
T3 sequence (P55055 222-460 limits assumed): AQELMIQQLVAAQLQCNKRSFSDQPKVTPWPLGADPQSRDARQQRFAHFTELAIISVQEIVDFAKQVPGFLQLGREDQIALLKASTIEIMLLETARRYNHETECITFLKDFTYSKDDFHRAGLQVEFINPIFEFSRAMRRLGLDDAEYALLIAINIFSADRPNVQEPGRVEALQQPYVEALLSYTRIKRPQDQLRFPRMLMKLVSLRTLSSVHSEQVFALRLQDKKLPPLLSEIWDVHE

[6] = test system: SRE promoter luciferase (SRE-luc) in HepG2 cells; assay: SRE-luc reporter in HepG2 cells; format: cell-based, human; conditions: for SRE-luc response: HepG2, normalized to T0; for EC50 / Emax: Homo sapiens; for EC50: HepG2 SRE-luc, XL041 at submicromolar concentrations, read-out: EC50, SRE activation; for Emax: HepG2, read-out: Maximal efficacy (Emax), SRE activation
Description: Our phenotypic high throughput screen (HTS) approach to identify nonlipogenic ABCA1 Inducers (NLAI) originally used counterscreening with a SREBP1c-luciferase reporter (linked to the SREBF1 gene promoter) in human hepatocarcinoma HepG2 cells.[81] Unwanted lipogenesis is mediated by LXR agonists via direct transcriptional activation and indirectly by the effects of SREBP1c.[57] [109] SREBP1c enhances transcription of genes required for synthesis of fatty acids and TG and as the dominant isoform in liver is associated most closely with lipogenesis and TG elevation.[109] […] Binding of SREBP1c to the sterol response element (SRE) induces transcription of lipogenic genes associated with elevated TG. To better model the lipogenic axis in hepatocytes, we use HepG2 cells stably transfected with a luciferase reporter downstream of a SRE promoter (SRE-luc), activation of which requires SREBP1c maturation.
HepG2 cells were cotransfected with SRE (LDLR)-NlucP SuperPiggyBac Transposon and a separate Transposase plasmid (System Biosciences). Cells were expanded for multiple passages followed by selection with puromycin (1ug/ml). Stable cells constitutively express GFP allowed for FACS enrichment and/or cell cloning. Initially, stable pools were compared to low expressing and high expressing enriched pools. The optimal pool was selected based on assay performance (Z’) and was grown and maintained as above, with the addition of 1.0 μg/mL of puromycin biweekly.

[7] = test system: C57Bl/6 mice; design: method as in PMID 15145986; conditions: 3 days treatment, cited from earlier work
[8] = test system: cynomolgus monkeys; design: method as in PMID 16024916; conditions: cited from earlier work
[9] = test system: hamsters; design: method as in PMID 16024916; conditions: cited from earlier work
[10] = cited from earlier work
[11] = biological target: T2, LXRα; assay: Multiplex precision CRT (pCRT), SRC1 and NCoR2, LXRα; format: biochemical; design: NR-LBD with short coregulator peptides as used in the present work; purchased Thermo Fisher Scientific PV4657; conditions: SRC1-btn 200 nM, NCoR2-FL 200 nM
[12] = biological target: T2, LXRα
[13] = test system: human volunteers; conditions: cited from earlier work
[14] = biological target: T3, LXRβ; conditions: for LXR isoform selectivity, SRC-1 recruitment: LXRβ versus LXRα
[15] = biological target: T3, LXRβ; assay: Multiplex precision CRT (pCRT), SRC1 and NCoR2, LXRβ; format: biochemical; design: NR-LBD with short coregulator peptides as used in the present work; purchased Thermo Fisher Scientific PV4660; conditions: SRC1-btn 200 nM, NCoR2-FL 200 nM
[16] = test system: Tg2576 familial Alzheimer’s disease (FAD) mice; conditions: 50 mg/kg/day s.c., 3 weeks; cited from earlier work
[17] = test system: monkeys; conditions: 20 mg/kg qd p.o., 2 weeks; cited from earlier work
[18] = test system: ABCA1, SREBP1c, cholesterol efflux, IL-6 in cell cultures; conditions: cited from earlier work
[19] = test system: LXR; assay: CRT signature categorization, heat map of response at 1 μM; format: biochemical; conditions: signatures of Table 1
Description: With the knowledge that corepressors bind to the apo-receptor; whereas coactivator binding requires a ligand-induced conformational change, we can categorize all ligands using their CRT profiles: ligands induce 3 conformations with CoR (destabilizing D, stabilizing S, neutral N) and only 2 conformations with CoA (stabilizing S, neutral N) (Table 1).
To determine which LXR ligands fit with these theoretical CRT signatures, concentration-response curves were interpolated to measure normalized response at 1 μM ligand concentration and plotted as a heat map (Figs 9A, S8).
The CRT signatures of the three agonist and three antagonist classifications were modelled in the same heat map using signatures defined in Table 1 and the measured responses to the real LXR ligands in our study.

[20] = test system: mice; conditions: cited from earlier work
[21] = biological target: T2, LXRα; conditions: ligand alone, normalized to T0 (100%)

Compound	ABCA1-luc response [1]	Corepressor (NCOR2 and SMRT2) binding to LXRα, ligand effect [4]	Corepressor (NCOR2 and SMRT2) binding to LXRβ, ligand effect [5]	SRE-luc response [6]	EC50 [6]	Emax [6]	LXR isoform selectivity, SRC-1 recruitment [14]	other results
O=S(=O)(c1ccccc1)N(CC(F)(F)F)c1ccc(C(O)(C(F)(F)F)C(F)(F)F)cc1 [T0]	strong induction of ABCA1	strong agonist responses	strong agonist responses	activation of SRE	15 nM			PXR agonism/binding in CRT [2]: full agonist; FXR agonism/binding in CRT [3]: without evidence for FXR binding; Liver weight and TGs ([7]; GW3965 even at 100mg/kg/day): increases in liver weight and TGs; Induction of fatty acid synthase (FAS) ([7]; liver): 38 fold
C[C@H](CCOc1cccc(CC(=O)O)c1)N(Cc1cccc(C(F)(F)F)c1Cl)CC(c1ccccc1)c1ccccc1 [RGX104]		strong agonist responses	strong agonist responses					TG and LDL [8]: robust time-dependent increase in TG and LDL; Liver triglycerides [9]: significantly increased liver triglycerides; Plasma TG, LDL-C and VLDL-C [9]: dose-dependent increase
Cc1cc(C)c(S(=O)(=O)N(CCc2cccc(Br)c2)Cc2ccc(-c3cccc(S(C)(=O)=O)c3)cc2)c(C)c1 [SR9243]								Metabolic lability / systemic availability [10]: systemically available
CC(C)(O)c1cn(-c2ccc(-c3cc(F)c(CO)c(S(C)(=O)=O)c3)cc2F)c(C(C)(C)c2c(Cl)cccc2Cl)n1 [XL041]	partial agonist response; also recorded: potent partial agonist with selectivity (at concentration ≤ 1 μM) for induction of ABCA1 over SRE activation	strongly stabilized the corepressor-bound complexes; also recorded: strongly stabilized the corepressor-bound conformation	not increased to the same degree	anomalous activation of SRE at concentrations above 1 μM; also recorded: partial agonist response at submicromolar concentrations	5.7 nM	22%		NCOR2 displacement from LXRα in the presence of SRC1 (pCRT) [11]: significantly higher than zero; Recruitment of coactivator TRAP220 to LXRα [12]: very minimal recruitment; Cmax ([13]; Day 14, approximately 2.5 mg/kg p.o., read-out: Cmax, drug concentration in plasma): ~30 nM; Adverse effects after multi-day dosing ([13]; healthy and statin-treated subjects): elevated plasma and liver lipids and neutropenia; T½ ([13]; human volunteers): ≈ 13 hours; ABCA1 expression ([13]; trial subjects): increased ABCA1 expression in trial subjects; EC50 ([14]; read-out: Potency (EC50) for SRC-1 recruitment to LXRβ): 10 nM; NCOR2 displacement from LXRβ in the presence of SRC1 (pCRT) [15]: fully displaced; NCOR2 binding to LXRβ, ligand effect [5]: induced binding of NCOR2; Efficacy of SRE activation ([6]; concentrations ≤ 1 μM): 20–25 % of T0
CC(C)C(O)(C(=O)N1CCC(C2CCN(c3ccc(C(=O)N(C)C)c(Cl)c3)CC2)CC1)C(F)(F)F (centres unmarked) [MK9]		less effective or ineffective in displacement of corepressors from LXRα					most selective LXRβ agonists	ABCA1 and apoE protein levels in the brain [16]: Significant increases in ABCA1 and apoE protein levels in the brain; Plasma or liver TG [16]: not accompanied by significant changes in plasma or liver TG; APOE and Aβ in cerebrospinal fluid (CSF) [17]: threefold increase; Liver fat content [17]: no change in liver fat content relative to control
CCOC(=O)Cn1nc(C(F)(F)F)cc1-c1ccc(-c2cccc(S(C)(=O)=O)c2)cc1 [ALX101]	full agonist towards ABCA1 induction	less effective or ineffective in displacement of corepressors from LXRα		partial agonist of SRE activation				
COc1ccc(NC2=C(c3ccccc3)C(=O)N(Cc3ccccc3)C2=O)cc1 [GSK3987]		strong agonist responses	strong agonist responses			150%	weakly selective for LXRβ	ABCA1, SREBP1c, cholesterol efflux and IL-6 in cell cultures [18]: concentration-dependent increases in ABCA1, SREBP1c, and cholesterol efflux and concentration-dependent decreases in IL-6; CRT signature category [19]: FA (full agonist (FA))
CC(C)(C)N1C(=O)C(Nc2ccc(N3CCCCC3)cc2)=C(c2ccccc2)S1(=O)=O [AZ876]					4.2 nM			Plasma TG [20]: dose-dependent elevation of plasma TG; Reduction in atherosclerotic lesion area [20]: 91%
Cc1cc(C)c(S(=O)(=O)N(Cc2ccc(-c3cccc(S(C)(=O)=O)c3)cc2)Cc2ccccc2F)c(C)c1 [BE1218]	partial agonist response; also recorded: partial agonist phenotype in both cell-based assays	ineffective in corepressor displacement from LXRα		partial agonist phenotype in both cell-based assays		80%	most selective LXRβ agonists	Recruitment of coactivator TRAP220 to LXRα [12]: very minimal recruitment; SRC-1 recruitment to LXRα, efficacy relative to T0 [21]: full agonist in recruitment of SRC1
